Measured values: article PMC9959553, “Promising Antifungal Molecules against Mucormycosis Agents Identified from Pandemic Response Box®: In Vitro and In Silico Analyses” (Journal of Fungi, 2023)

Test system: R. oryzae UCP1295
Assay: Screening of the Pandemic Response Box library at 5 µM
Format: cell-based, Rhizopus oryzae
Details: 48 h, Table S1, mean of the four values
Description: Rhizopus oryzae UCP is the most prevalent Mucorales species in human infections and was used as a reference strain to screen the Pandemic Response Box® library. Screening was performed according to Rollin-Pinheiro and colleagues. Each compound was diluted in RPMI 1640 medium (Sigma Chemical Co., St. Louis, MO, USA), supplemented with 2% glucose and buffered with 3-(N-morpholino) propanesulfonic acid (MOPS) (Sigma Chemical Co., St. Louis, MO, USA) (0.165 mol/L, pH 7.2, from here on referred to as ‘supplemented RPMI’) to reach 5 μM in 96-well microtiter plates. Posaconazole (5 μM) and supplemented RPMI containing 1% DMSO were used as controls (both from Sigma Chemical Co., St. Louis, MO, USA). Conidia (2 × 10^5/mL) were added and incubated for 48 h at 37 °C in a 5% CO2 atmosphere. […] An inhibition of at least 60% was defined as the cut-off to select the promising drugs with antifungal activity against the Rhizopus species.

| SMILES | % of growth inhibition, Mean [%] |
| --- | --- |
| C=CCN(C(=O)OCc1ccc([N+](=O)[O-])cc1)C1CCN(CC[C@](C)(CN(C)S(=O)(=O)c2ccccc2)c2ccccc2)CC1 [MMV1782214] | 14.4 |
| CC(C)(C)NC(=O)[C@@H]1CN(Cc2cnc3occc3c2)CCN1C[C@@H](O)C[C@@H](Cc1ccccc1)C(=O)N[C@H]1c2ccccc2C[C@H]1O [MMV1782353] | -11.2 |
| O=P(O)(O)C(CCCc1cccc(Oc2ccccc2)c1)S(=O)(=O)O (stereo not drawn) [MMV1782215] | -6.1 |
| NC(=O)c1cnc2ccc(S(=O)(=O)c3ccccc3)cc2c1Nc1ccc(O)cc1 [MMV1580848] | -15.6 |
| Cc1ncc([N+](=O)[O-])n1CC(C)O (stereo not drawn) [MMV002287] | -34.1 |
| O=C(c1cc(O)nc2ccccc12)N1CCN(c2ccccc2)CC1 [MMV596723] | -7.3 |
| O=C1[C@H](CC[C@H](O)c2ccc(F)cc2)[C@@H](c2ccc(O)cc2)N1c1ccc(F)cc1 [MMV1581377] | 3.5 |
| CC(C)(C)OC(=O)NCc1ccc(C(=O)N[C@H]2CCOC2=O)cc1 [MMV1581547] | -3.1 |
| COc1ccc2nc(-c3ccccc3)cc(O)c2c1 [MMV011565] | -42.1 |
| CN(Cc1ccc(C(C)(C)C)cc1)Cc1cccc2ccccc12.Cl [MMV637104] | -30.4 |
| NC(=O)c1cnccn1 [MMV003249] | -5.2 |
| O=C(Cc1ccccc1F)Nc1nc2ccccc2[nH]1 [MMV1578576] | -39.7 |
| O=c1nc(N2CCN(CC3CCCCC3)CC2)sc2c([N+](=O)[O-])cc(C(F)(F)F)cc12 [MMV1578885] | -14.2 |
| CN(C)CC(=O)Nc1ccc2[nH]c(=O)c3ccccc3c2c1 [MMV1580480] | -3.9 |
| O=C(c1ccccc1)N1CCN(c2ccccc2NC(=O)C(Cl)(Cl)Cl)CC1 [MMV001014] | -10.6 |
| Nc1cc(N)c2nc(-c3ccccc3)c(Nc3ccc(F)cc3)nc2c1 [MMV1581554] | -29.5 |
| CC(C)Oc1ccc(-n2cnc3cc(/C=C\c4ccc(C(C)(C)O)cc4)ccc32)cc1 [MMV1782350] | 26.5 |
| O=C(NC(=O)N1CCCc2ccccc21)c1ccc(Cl)cc1Cl [MMV1782218] | -21.0 |
| CCCNc1ccc(S(=O)(=O)Nc2cc(C)on2)cc1 [MMV1782216] | -18.8 |
| COc1cc(NC(=O)CN2C(=O)NC(c3ccccc3)(c3ccccc3)C2=O)cc(OC)c1 [MMV1578572] | -14.6 |
| COCCn1cnc2c(O)nc(Nc3ccccc3)nc21 [MMV1782103] | -15.7 |
| Nc1nc2c(ncn2COCCO)c(=O)[nH]1 [MMV001961] | -10.2 |
| COc1ccc(-n2cnc3cc(NCc4ccco4)ccc32)cc1 [MMV617332] | 22.8 |
| O=C(O)C(Cc1c[nH]c2ccccc12)N1C(=O)c2ccccc2C1=O (stereo not drawn) [MMV452821] | -16.1 |

| SMILES | % of growth inhibition, Mean [%] |
| --- | --- |
| NC[C@H]1OB(O)c2c(OCCCO)cccc21 [MMV1578566] | -20.6 |
| CCc1ccc(C2CC(C(F)(F)F)n3ncc(C(=O)NCc4ccc(OC)cc4)c3N2)cc1 (stereo not drawn) [MMV831201] | -4.6 |
| CC[C@H]1OC(=O)[C@H](C)[C@@H](O[C@H]2C[C@@](C)(OC)[C@@H](O)[C@H](C)O2)[C@H](C)[C@@H](O[C@@H]2O[C@H](C)C[C@H](N(C)C)[C@H]2O)[C@](C)(O)C[C@@H](C)C(=O)[C@H](C)[C@@H](O)[C@]1(C)O [MMV003137] | -11.8 |
| Cc1c(F)cccc1NC(=O)Nc1ccc(Cl)c(S(=O)(=O)[C@H]2CCCNC2)c1O [MMV1581034] | -0.9 |
| O=C(NNC(=S)Nc1ccc(Cl)cc1)c1ccncc1 [MMV1782227] | -24.0 |
| CC(=O)O[C@H]1C[C@@]2(C)[C@@H](C[C@@H](O)[C@H]3[C@@]4(C)CC[C@@H](O)[C@@H](C)[C@@H]4CC[C@@]32C)/C1=C(\CCC=C(C)C)C(=O)O [MMV1578575] | -21.4 |
| COC1CC2CCC(C)C(O)(O2)C(=O)C(=O)N2CCCCC2C(=O)OC(C(C)CC2CCC(OCCO)C(OC)C2)CC(=O)C(C)/C=C(\C)C(O)C(OC)C(=O)C(C)CC(C)/C=C/C=C/C=C/1C (stereo not drawn) [MMV639951] | -2.4 |
| Cc1nc(N(C)C(=O)Cc2ccc(-c3ccccn3)cc2)sc1S(N)(=O)=O [MMV1580486] | -4.4 |
| COc1ccc(CNC(=O)C(NS(=O)(=O)c2ccc3nc(C)sc3c2)C(C)C)cc1 (stereo not drawn) [MMV303733] | -8.6 |
| CCCCc1ccc(C(=O)O)nc1 [MMV001726] | -15.9 |
| C[C@@H](O)[C@H](N)C(=O)NS(=O)(=O)c1cccc(-c2ccc3[nH]ncc3c2)c1.Cl.Cl [MMV1582494] | -14.6 |
| CCOc1ccc(/C=N/NC(=O)C2CC2c2ccc(C(C)(C)C)cc2)cc1OCC (stereo not drawn) [MMV1634398] | 4.7 |
| Cn1c2ccccc2c(=O)c2c(O)cccc21 [MMV1580500] | -3.0 |
| Cc1cc(CCCOc2c(C)cc(-c3noc(C(F)(F)F)n3)cc2C)on1 [MMV690467] | -3.4 |
| COc1cccc(N2CCN(C3=Nc4c(F)cccc4[C@H](CC(=O)O)N3c3cc(C(F)(F)F)ccc3OC)CC2)c1 [MMV690653] | -6.7 |
| CN1C(=O)C(c2ccccc2)C(=O)N(c2ccccc2)c2cc(C(F)(F)F)ccc21 (stereo not drawn) [MMV1782208] | -7.5 |
| O=c1cc(NCCCN[C@@H]2CCOc3c(Br)cc(Br)cc32)[nH]c2ccsc12 [MMV1578884] | -1.3 |
| CO[C@@]1(NC(=O)Cc2cccs2)C(=O)N2C(C(=O)O)=C(COC(N)=O)CS[C@@H]21 [MMV1578559] | -22.5 |
| Cc1[nH]c2ccccc2c1CC(=O)N[C@@H](Cc1ccccc1)C(=O)N(C)c1ccccc1 [MMV1580798] | -2.6 |
| CCN(CC)CCn1c(=N)n(CC(O)COc2ccc(Cl)cc2Cl)c2ccccc21 (stereo not drawn) [MMV000725] | -27.5 |
| CC(C)c1cc2c(cc1S(=O)(=O)O)[C@@]1(C)CCC[C@@](C)(C(=O)O)[C@@H]1CC2 [MMV1633675] | -25.5 |
| Nc1nc(Nc2ccc3nc(-c4ccc(F)cc4)cc(N)c3c2)cc(-c2ccccc2)n1 [MMV1593541] | -21.7 |
| O=C(O)COc1cccc2c1CC[C@](O)(COC(=O)N(c1ccccc1)c1ccccc1)C2 [MMV1782352] | -13.6 |
| O=C(Nc1[nH]c(=O)ncc1F)c1ccccc1 [MMV1782225] | -27.6 |

| SMILES | % of growth inhibition, Mean [%] |
| --- | --- |
| O=S(=O)(Nc1ccc(O)cc1)c1cccc2cccnc12 [MMV251679] | -4.7 |
| COc1cc(NCc2ccc3nc(N)nc(N)c3c2C)cc(OC)c1OC [MMV1580173] | 46.8 |
| N[C@H](CCC(=O)N[C@@H](Cc1c[nH]c2ccccc12)C(=O)O)C(=O)O [MMV1581033] | 2.8 |
| CCC[C@H](NC(=O)[C@@H]1[C@H]2CCC[C@H]2CN1C(=O)[C@@H](NC(=O)[C@@H](NC(=O)c1cnccn1)C1CCCCC1)C(C)(C)C)C(=O)C(=O)NC1CC1 [MMV1580494] | -15.1 |
| O=S(=O)(NCB(O)O)c1ccc(-c2nnn[nH]2)cc1C(F)(F)F [MMV1782411] | -7.7 |
| CC[C@@]1(O)C(=O)OCc2c1cc1n(c2=O)Cc2cc3c([N+](=O)[O-])cccc3nc2-1 [MMV1580796] | -1.7 |
| CC[C@@H]1C(=O)OC[C@@H]1Cc1cncn1C.Cl [MMV002516] | -16.1 |
| CO/N=C(\C(=O)N[C@@H]1C(=O)N2C(C(=O)OCOC(=O)C(C)(C)C)=C(/C=C\c3scnc3C)CS[C@H]12)c1csc(N)n1 [MMV002560] | -6.4 |
| CN(C)c1[nH]c(=O)ncc1F [MMV1782223] | -26.3 |
| CC(=O)Oc1ccccc1C(=O)Nc1ncc([N+](=O)[O-])s1 [MMV688991] | 5.4 |
| Nc1nc(NC2Cc3ccc(F)cc3C2)nc(N2CCCCC2)n1 (stereo not drawn) [MMV1580839] | -3.1 |
| O=C(N[C@H](CCS)C(=O)N[C@H](Cc1ccccc1)C(=O)O)c1cc2ccccc2[nH]1 [MMV1581557] | 0.3 |
| Oc1ccc2[nH]c(-c3ccccc3)nc2c1 [MMV292173] | -15.4 |
| Cc1onc(-c2ccccc2)c1-c1ccc(S(N)(=O)=O)cc1 [MMV002260] | -15.5 |
| CCOC(=O)N1CCN(c2ccc(Cl)cc2)CC1 [MMV1578898] | 0.3 |
| CN(C)[C@@H]1C(=O)C(C(N)=O)=C(O)[C@@]2(O)C(=O)C3=C(O)c4c(O)c(NC(=O)CN5CCCC5)cc(F)c4C[C@H]3C[C@@H]12.Cl.Cl [MMV1578574] | -44.3 |
| O=C(Nc1nnc(-c2ccccc2)o1)c1ccc(F)cc1 [MMV1578578] | -32.9 |
| CCOc1ccc(C(=O)NCCc2ccccc2)cc1 [MMV124656] | -37.8 |
| Cl.NC1(C(=O)O)CCP(=O)(O)CC1 (stereo not drawn) [MMV1593538] | 0.4 |
| COc1ccc(C2CNC(=O)C2)cc1OC1CCCC1 (stereo not drawn) [MMV003738] | -1.4 |
| CC(C)n1cnc2c(NCc3ccccc3)nc(NCc3ccccc3)nc21 [MMV1579780] | -15.2 |
| CN(C)CCNC(=O)c1cccc2cccnc12 [MMV811071] | -21.7 |
| CCCCCCC1c2ccc(O)cc2Oc2cc(O)ccc21 [MMV1593535] | -3.0 |
| OB1OCc2c1ccc(Cl)c2F [MMV1782226] | -20.0 |
